Experimental data taken from PMC10156173, “GUN4 appeared early in cyanobacterial evolution” (PNAS Nexus, 2023).

Tests used:
[1] = target: T1, CrGUN4 (Chlamydomonas GUN4) (Chlamydomonas reinhardtii, UniProt A8I5N5); test: absorption spectrum of purified protein co-expressed with PCB biosynthesis in E. coli; type: binding; conditions: TKKG buffer (25 mM TES-KOH pH 7.8, 100 mM KCl, 10% glycerol); peaks at 368 and 674 nm
T1 construct: gene CHLRE_05g246800v5; in-frame His-tagged fusion in pET28a; expressed in E. coli C41 with pKT271 (PCB biosynthesis); Ni-NTA purified
T1 sequence (A8I5N5 entry or part of it): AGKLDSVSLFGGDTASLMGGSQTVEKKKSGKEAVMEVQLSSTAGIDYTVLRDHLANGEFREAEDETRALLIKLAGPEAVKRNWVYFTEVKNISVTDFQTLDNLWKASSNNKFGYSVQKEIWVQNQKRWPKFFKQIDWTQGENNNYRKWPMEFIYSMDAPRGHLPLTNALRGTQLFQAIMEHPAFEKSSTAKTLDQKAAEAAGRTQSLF

[2] = target: T2, CrGUN4 (Chlamydomonas GUN4) (Chlamydomonas reinhardtii, UniProt A8I5N5, N219G); test: as above; conditions: TKKG buffer (25 mM TES-KOH pH 7.8, 100 mM KCl, 10% glycerol); no PCB binding detected
T2 construct: gene CHLRE_05g246800v5; in-frame His-tagged fusion in pET28a; expressed in E. coli C41 with pKT271 (PCB biosynthesis); Ni-NTA purified
T2 sequence (A8I5N5 entry or part of it N219G): as the sequence (A8I5N5 entry or part of it) above, with N167G counted along it

CC=C1C(=CC2=NC(=Cc3[nH]c(C=C4NC(=O)C(CC)=C4C)c(C)c3CCC(=O)O)C(CCC(=O)O)=C2C)NC(=O)[C@@H]1C [PCB]
absorption spectrum of purified protein co-expressed with PCB biosynthesis in E. [1]: Wild-type CrGUN4 contains a small amount of bilin as shown by characteristic peaks
bilin absorbance peaks (368 and 674 nm) [2]: these peaks are absent in the N219G variant
